The values that follow are results of earlier work, collected in patent publication US11878022B2 (Novitium Pharma LLC, priority 2020, dated 2024).

The conditions of data set [1]: in vivo.
For data set [2] the following is noted: in vivo. The source holds these as a separate data set.

Take `NS(=O)(=O)c1cc2c(cc1Cl)NCNS2(=O)=O` [Hydrochlorothiazide, 6-Chloro-3,4-dihydro-2H-1,2,4-benzothiadiazine-7-sulfonamide-1,1-dioxide]: in data set [1], the “Onset of action after dosing” value is ≤ 2 h, the persistence of activity entry was “up to 24 hours” and the “time of peak effect” value is given as “about 4 hours”. The “Binding to serum proteins” value in data set [2] is given as 40-68%. Also, the “absorbed dose excreted in urine as unchanged drug” value in data set [2] (po) is recorded as “greater than 95%”.
